From the kinase profiling compilation of Christmann-Franck et al. (2016)

Legend:
Assay in all cases: KINOMEscan competition binding
[1] = target: ABL2 (human) (UniProt P42684); conditions: compound 1.0 µM
[2] = target: CDC42BPA (human) (UniProt Q5VT25); conditions: compound 1.0 µM
[3] = target: CDK7 (human) (UniProt P50613); conditions: compound 1.0 µM
[4] = target: CDKL3 (human) (UniProt Q8IVW4); conditions: compound 1.0 µM
[5] = target: DAPK2 (human) (UniProt Q9UIK4); conditions: compound 1.0 µM
Sequence of DAPK2 (human) (Q9UIK4 whole entry, looked up): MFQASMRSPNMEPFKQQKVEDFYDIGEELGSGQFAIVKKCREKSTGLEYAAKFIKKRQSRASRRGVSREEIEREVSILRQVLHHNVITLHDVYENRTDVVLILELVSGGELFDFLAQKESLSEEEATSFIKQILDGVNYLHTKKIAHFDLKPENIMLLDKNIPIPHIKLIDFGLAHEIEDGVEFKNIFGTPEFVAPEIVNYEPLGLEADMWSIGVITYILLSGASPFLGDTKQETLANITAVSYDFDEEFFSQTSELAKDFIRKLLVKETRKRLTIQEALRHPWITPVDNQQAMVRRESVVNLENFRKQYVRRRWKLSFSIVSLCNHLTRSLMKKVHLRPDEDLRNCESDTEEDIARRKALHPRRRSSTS

[6] = target: DCLK3 (human) (UniProt Q9C098); conditions: compound 1.0 µM
[7] = system: EGFR (human), P00533 [G719S]; conditions: compound 1.0 µM
[8] = system: EGFR (human), P00533 [L858R]; conditions: compound 1.0 µM
[9] = target: EPHA5 (human) (UniProt P54756); conditions: compound 1.0 µM
[10] = target: ERBB3 (human) (UniProt P21860); conditions: compound 1.0 µM
[11] = target: FGFR4 (human) (UniProt P22455); conditions: compound 1.0 µM
Sequence of FGFR4 (human) (P22455 whole entry, looked up): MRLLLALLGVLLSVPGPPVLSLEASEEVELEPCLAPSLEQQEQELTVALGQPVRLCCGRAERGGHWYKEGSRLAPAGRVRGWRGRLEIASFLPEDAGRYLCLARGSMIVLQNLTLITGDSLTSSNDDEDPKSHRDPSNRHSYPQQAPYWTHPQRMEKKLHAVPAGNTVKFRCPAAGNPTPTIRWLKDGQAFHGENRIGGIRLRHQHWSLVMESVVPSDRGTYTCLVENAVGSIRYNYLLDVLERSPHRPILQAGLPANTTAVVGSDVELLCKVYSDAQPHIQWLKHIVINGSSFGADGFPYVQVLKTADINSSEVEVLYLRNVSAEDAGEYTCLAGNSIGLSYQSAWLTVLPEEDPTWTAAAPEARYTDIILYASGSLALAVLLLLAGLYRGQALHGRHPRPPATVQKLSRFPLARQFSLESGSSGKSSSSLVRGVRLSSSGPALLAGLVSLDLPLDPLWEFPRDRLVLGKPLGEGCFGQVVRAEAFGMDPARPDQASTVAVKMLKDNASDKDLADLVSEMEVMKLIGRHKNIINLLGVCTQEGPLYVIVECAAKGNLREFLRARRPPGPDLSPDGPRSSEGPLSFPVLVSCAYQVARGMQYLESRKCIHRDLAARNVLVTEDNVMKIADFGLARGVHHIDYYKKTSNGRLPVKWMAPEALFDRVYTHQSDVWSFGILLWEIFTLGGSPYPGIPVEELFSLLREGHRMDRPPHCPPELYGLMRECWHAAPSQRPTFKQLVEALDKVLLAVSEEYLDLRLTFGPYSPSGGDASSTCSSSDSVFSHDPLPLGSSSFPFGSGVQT

[12] = target: FGR (human) (UniProt P09769); conditions: compound 1.0 µM
[13] = target: FLT4 (human) (UniProt P35916); conditions: compound 1.0 µM
[14] = target: GRK1 (human) (UniProt Q15835); conditions: compound 1.0 µM
[15] = target: GSK3B (human) (UniProt P49841); conditions: compound 1.0 µM
[16] = target: HIPK4 (human) (UniProt Q8NE63); conditions: compound 1.0 µM
[17] = target: ITK (human) (UniProt Q08881); conditions: compound 1.0 µM
Sequence of ITK (human) (Q08881 whole entry, looked up): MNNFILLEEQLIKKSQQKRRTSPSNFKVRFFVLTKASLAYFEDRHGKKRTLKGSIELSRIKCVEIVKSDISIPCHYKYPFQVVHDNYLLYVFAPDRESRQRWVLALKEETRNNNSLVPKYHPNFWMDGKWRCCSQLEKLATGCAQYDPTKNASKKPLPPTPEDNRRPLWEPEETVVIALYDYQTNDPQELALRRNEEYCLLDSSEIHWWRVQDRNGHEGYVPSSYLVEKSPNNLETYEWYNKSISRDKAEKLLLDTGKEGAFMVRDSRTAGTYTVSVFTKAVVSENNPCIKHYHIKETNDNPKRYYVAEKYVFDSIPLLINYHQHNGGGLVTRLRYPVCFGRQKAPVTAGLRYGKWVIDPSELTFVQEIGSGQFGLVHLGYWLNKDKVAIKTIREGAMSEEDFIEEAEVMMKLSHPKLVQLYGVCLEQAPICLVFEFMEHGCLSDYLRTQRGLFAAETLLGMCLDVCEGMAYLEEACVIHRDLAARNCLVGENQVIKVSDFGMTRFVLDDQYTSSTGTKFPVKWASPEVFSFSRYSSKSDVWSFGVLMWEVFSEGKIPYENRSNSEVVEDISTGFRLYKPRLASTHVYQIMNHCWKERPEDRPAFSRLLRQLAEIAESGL

[18] = target: JAK1 JH1 catalytic (human) (UniProt P23458); conditions: compound 1.0 µM
[19] = target: KIT (human) (UniProt P10721); conditions: compound 1.0 µM
Sequence of KIT (human) (P10721 whole entry, looked up): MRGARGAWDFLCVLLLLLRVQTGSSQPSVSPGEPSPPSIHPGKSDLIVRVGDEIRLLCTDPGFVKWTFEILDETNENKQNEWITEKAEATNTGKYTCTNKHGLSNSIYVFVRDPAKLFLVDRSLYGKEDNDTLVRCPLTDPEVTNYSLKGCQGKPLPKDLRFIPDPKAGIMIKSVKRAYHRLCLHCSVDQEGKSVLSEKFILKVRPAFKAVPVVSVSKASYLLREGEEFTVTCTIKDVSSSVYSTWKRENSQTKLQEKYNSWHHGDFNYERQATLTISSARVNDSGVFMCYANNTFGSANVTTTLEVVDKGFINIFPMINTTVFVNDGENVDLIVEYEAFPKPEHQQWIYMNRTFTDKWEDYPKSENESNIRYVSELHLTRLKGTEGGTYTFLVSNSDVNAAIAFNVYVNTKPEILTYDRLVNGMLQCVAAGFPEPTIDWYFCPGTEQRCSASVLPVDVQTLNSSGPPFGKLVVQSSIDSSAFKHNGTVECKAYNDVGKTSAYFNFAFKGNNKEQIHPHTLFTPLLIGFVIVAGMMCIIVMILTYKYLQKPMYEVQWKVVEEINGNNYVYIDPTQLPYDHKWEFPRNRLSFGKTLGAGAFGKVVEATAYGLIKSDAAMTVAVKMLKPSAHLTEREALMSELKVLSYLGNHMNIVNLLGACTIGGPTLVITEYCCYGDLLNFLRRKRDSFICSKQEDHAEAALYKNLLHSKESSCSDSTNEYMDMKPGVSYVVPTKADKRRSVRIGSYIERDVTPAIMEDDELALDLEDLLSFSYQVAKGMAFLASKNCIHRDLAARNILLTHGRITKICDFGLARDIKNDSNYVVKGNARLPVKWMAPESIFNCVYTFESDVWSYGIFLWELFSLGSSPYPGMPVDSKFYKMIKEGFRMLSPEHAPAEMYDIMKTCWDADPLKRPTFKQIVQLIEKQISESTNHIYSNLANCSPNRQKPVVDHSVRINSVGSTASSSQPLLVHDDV

[20] = target: MAP4K5 (human) (UniProt Q9Y4K4); conditions: compound 1.0 µM
[21] = target: MAPK15 (human) (UniProt Q8TD08); conditions: compound 1.0 µM
[22] = target: MET (human) (UniProt P08581); conditions: compound 1.0 µM
[23] = system: MET (human), P08581 [M1250T]; conditions: compound 1.0 µM
[24] = target: MKNK1 (human) (UniProt Q9BUB5); conditions: compound 1.0 µM
[25] = target: MYO3A (human) (UniProt Q8NEV4); conditions: compound 1.0 µM
[26] = target: MYO3B (human) (UniProt Q8WXR4); conditions: compound 1.0 µM
[27] = target: NEK11 (human) (UniProt Q8NG66); conditions: compound 1.0 µM
[28] = target: NEK6 (human) (UniProt Q9HC98); conditions: compound 1.0 µM
[29] = target: NTRK3 (human) (UniProt Q16288); conditions: compound 1.0 µM
[30] = target: PHKG1 (human) (UniProt Q16816); conditions: compound 1.0 µM
[31] = target: PHKG2 (human) (UniProt P15735); conditions: compound 1.0 µM
[32] = target: PIM2 (human) (UniProt Q9P1W9); conditions: compound 1.0 µM
[33] = target: PRKCD (human) (UniProt Q05655); conditions: compound 1.0 µM
[34] = target: PRKG2 (human) (UniProt Q13237); conditions: compound 1.0 µM
[35] = target: RIOK2 (human) (UniProt Q9BVS4); conditions: for kinase still bound, per cent of control: compound 1.0 µM
Sequence of RIOK2 (human) (Q9BVS4 whole entry, looked up): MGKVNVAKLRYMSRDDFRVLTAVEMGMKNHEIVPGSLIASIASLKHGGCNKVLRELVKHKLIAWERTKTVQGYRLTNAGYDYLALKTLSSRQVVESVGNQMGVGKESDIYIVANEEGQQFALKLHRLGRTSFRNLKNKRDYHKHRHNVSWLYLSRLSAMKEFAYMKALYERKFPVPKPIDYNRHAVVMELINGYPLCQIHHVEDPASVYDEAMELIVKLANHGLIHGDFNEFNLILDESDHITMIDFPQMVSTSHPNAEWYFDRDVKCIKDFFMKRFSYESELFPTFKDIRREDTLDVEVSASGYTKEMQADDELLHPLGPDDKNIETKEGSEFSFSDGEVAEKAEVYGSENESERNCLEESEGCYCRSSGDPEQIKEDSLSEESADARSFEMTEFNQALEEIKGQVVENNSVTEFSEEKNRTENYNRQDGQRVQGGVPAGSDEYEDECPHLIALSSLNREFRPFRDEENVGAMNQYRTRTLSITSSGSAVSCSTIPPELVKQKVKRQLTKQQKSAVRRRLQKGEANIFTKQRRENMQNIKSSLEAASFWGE

[36] = target: RIOK3 (human) (UniProt O14730); conditions: compound 1.0 µM
[37] = target: RPS6KB1 (human) (UniProt P23443); conditions: compound 1.0 µM
[38] = target: STK25 (human) (UniProt O00506); conditions: compound 1.0 µM
[39] = target: STK32C (human) (UniProt Q86UX6); conditions: compound 1.0 µM
[40] = target: TAOK3 (human) (UniProt Q9H2K8); conditions: compound 1.0 µM
[41] = target: TBK1 (human) (UniProt Q9UHD2); conditions: compound 1.0 µM
[42] = target: TRPM6 (human) (UniProt Q9BX84); conditions: compound 1.0 µM
[43] = target: TXK (human) (UniProt P42681); conditions: compound 1.0 µM

Sequence of CDC42BPA (human) (Q5VT25 whole entry, looked up): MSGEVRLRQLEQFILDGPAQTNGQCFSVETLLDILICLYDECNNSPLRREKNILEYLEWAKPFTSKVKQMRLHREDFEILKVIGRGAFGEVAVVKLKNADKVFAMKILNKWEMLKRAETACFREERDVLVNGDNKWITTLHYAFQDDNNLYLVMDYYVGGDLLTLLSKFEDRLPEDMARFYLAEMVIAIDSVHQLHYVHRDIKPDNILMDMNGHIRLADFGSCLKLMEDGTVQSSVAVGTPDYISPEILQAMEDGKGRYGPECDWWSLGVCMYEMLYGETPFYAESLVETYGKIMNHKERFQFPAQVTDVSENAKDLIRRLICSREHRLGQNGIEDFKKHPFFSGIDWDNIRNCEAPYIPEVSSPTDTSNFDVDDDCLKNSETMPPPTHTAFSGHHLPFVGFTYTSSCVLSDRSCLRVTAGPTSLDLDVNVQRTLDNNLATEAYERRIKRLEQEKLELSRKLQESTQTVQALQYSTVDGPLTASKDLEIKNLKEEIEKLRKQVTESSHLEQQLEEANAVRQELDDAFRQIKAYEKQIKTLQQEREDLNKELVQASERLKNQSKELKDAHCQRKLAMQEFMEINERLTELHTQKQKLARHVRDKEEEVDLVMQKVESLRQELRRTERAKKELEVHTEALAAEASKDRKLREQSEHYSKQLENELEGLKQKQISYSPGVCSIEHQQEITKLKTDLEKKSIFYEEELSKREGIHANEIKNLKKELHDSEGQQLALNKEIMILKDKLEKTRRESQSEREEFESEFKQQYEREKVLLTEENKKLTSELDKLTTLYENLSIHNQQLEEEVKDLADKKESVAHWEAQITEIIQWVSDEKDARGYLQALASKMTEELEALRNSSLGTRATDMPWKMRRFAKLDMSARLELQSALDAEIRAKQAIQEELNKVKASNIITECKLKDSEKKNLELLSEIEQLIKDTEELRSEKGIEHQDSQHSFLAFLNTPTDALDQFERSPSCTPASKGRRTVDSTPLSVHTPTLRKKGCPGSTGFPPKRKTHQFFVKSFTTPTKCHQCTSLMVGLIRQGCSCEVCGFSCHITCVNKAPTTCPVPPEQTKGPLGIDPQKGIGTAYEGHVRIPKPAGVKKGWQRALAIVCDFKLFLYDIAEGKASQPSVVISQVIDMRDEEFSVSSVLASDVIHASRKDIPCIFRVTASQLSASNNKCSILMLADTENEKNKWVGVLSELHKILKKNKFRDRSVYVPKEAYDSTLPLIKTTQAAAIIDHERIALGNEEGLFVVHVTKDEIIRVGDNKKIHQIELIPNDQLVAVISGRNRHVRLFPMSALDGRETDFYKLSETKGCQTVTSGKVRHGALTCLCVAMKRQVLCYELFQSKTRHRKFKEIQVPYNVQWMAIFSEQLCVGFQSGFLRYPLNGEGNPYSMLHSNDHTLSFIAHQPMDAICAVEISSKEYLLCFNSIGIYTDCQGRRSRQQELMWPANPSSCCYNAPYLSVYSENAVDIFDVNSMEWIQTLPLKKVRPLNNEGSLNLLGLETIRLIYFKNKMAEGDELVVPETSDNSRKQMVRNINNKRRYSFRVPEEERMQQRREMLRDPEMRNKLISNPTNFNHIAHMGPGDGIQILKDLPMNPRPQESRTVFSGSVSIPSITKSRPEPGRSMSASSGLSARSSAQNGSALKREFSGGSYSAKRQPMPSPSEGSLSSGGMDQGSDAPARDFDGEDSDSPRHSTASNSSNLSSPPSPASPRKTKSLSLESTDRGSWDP

Compound `CN(C)C/C=C/C(=O)Nc1cccc(C(=O)Nc2ccc(Nc3nccc(/C(C#N)=C4\Nc5ccccc5S4)n3)cc2)c1` has a kinase still bound, per cent of control [1] of 100%, a kinase still bound, per cent of control [2] of 98% and a kinase still bound, per cent of control [3] of 94%. For the same compound, the kinase still bound, per cent of control [4] was 100%, the kinase still bound, per cent of control [5] was 100% and the kinase still bound, per cent of control [6] was 100%. The kinase still bound, per cent of control [7] was 100%, the kinase still bound, per cent of control [8] was 96% and the kinase still bound, per cent of control [9] was 100%. The kinase still bound, per cent of control [10] was 74%, the kinase still bound, per cent of control [11] was 100% and the kinase still bound, per cent of control [12] was 100%. It also gave a kinase still bound, per cent of control [13] of 78%, a kinase still bound, per cent of control [14] of 100% and a kinase still bound, per cent of control [15] of 93%. For the same compound, the kinase still bound, per cent of control [16] was 6%, the kinase still bound, per cent of control [17] was 85% and the kinase still bound, per cent of control [18] was 100%. The kinase still bound, per cent of control [19] was 12%, the kinase still bound, per cent of control [20] was 100% and the kinase still bound, per cent of control [21] was 76%. The kinase still bound, per cent of control [22] was 92%, the kinase still bound, per cent of control [23] was 79% and the kinase still bound, per cent of control [24] was 100%. The kinase still bound, per cent of control [25] was 100%, the kinase still bound, per cent of control [26] was 100% and the kinase still bound, per cent of control [27] was 100%. For the same compound, the kinase still bound, per cent of control [28] was 100%, the kinase still bound, per cent of control [29] was 97% and the kinase still bound, per cent of control [30] was 94%. For the same compound, the kinase still bound, per cent of control [31] was 100%, the kinase still bound, per cent of control [32] was 51% and the kinase still bound, per cent of control [33] was 47%. The kinase still bound, per cent of control [34] was 100%, the kinase still bound, per cent of control [35] was 18% and the kinase still bound, per cent of control [36] was 100%. For the same compound, the kinase still bound, per cent of control [37] was 100%, the kinase still bound, per cent of control [38] was 100% and the kinase still bound, per cent of control [39] was 100%. The kinase still bound, per cent of control [40] was 100%, the kinase still bound, per cent of control [41] was 100% and the kinase still bound, per cent of control [42] was 100%. For the same compound, the kinase still bound, per cent of control [43] was 100%.

`CN(C)C/C=C/C(=O)Nc1cccc(C(=O)Nc2ccc(Nc3nccc(-c4cccnc4)n3)cc2)c1` was tested, and the kinase still bound, per cent of control [1] was 79%, the kinase still bound, per cent of control [2] was 100% and the kinase still bound, per cent of control [3] was 20%. For the same compound, the kinase still bound, per cent of control [4] was 41%, the kinase still bound, per cent of control [5] was 75% and the kinase still bound, per cent of control [6] was 100%. For the same compound, the kinase still bound, per cent of control [7] was 78%, the kinase still bound, per cent of control [8] was 91% and the kinase still bound, per cent of control [9] was 96%. For the same compound, the kinase still bound, per cent of control [10] was 100%, the kinase still bound, per cent of control [11] was 100% and the kinase still bound, per cent of control [12] was 69%. It also gave a kinase still bound, per cent of control [13] of 95%, a kinase still bound, per cent of control [14] of 100% and a kinase still bound, per cent of control [15] of 78%. For the same compound, the kinase still bound, per cent of control [16] was 18%, the kinase still bound, per cent of control [17] was 85% and the kinase still bound, per cent of control [18] was 100%. The kinase still bound, per cent of control [19] was 2.4%, the kinase still bound, per cent of control [20] was 52% and the kinase still bound, per cent of control [21] was 7.1%. The kinase still bound, per cent of control [22] was 100%, the kinase still bound, per cent of control [23] was 100% and the kinase still bound, per cent of control [24] was 100%. The kinase still bound, per cent of control [25] was 81%, the kinase still bound, per cent of control [26] was 100% and the kinase still bound, per cent of control [27] was 86%. The kinase still bound, per cent of control [28] was 17%, the kinase still bound, per cent of control [29] was 97% and the kinase still bound, per cent of control [30] was 91%. For the same compound, the kinase still bound, per cent of control [31] was 64%, the kinase still bound, per cent of control [32] was 100% and the kinase still bound, per cent of control [33] was 76%. It also gave a kinase still bound, per cent of control [34] of 82%, a Kd [35] of 0.03 µM and a kinase still bound, per cent of control [35] of 2.2%. It also gave a kinase still bound, per cent of control [36] of 8.3%, a kinase still bound, per cent of control [37] of 68% and a kinase still bound, per cent of control [38] of 58%. It also gave a kinase still bound, per cent of control [39] of 98%, a kinase still bound, per cent of control [40] of 94% and a kinase still bound, per cent of control [41] of 61%. For the same compound, the kinase still bound, per cent of control [42] was 100% and the kinase still bound, per cent of control [43] was 83%.
